Where two headings read alike, the source gives them in different places.
Molecular target: T1, memapsin 2 (Homo sapiens, UniProt P56817)
T1 construct: pET-11 vector-derived residues 1-15 of promemapsin 2-T1 (N, cleaved yes); made in house; host or cells: E. coli
Test: Inhibition of memapsin 2 proteolytic activity, fluorogenic substrate FS-2
Assay type: biochemical
Conditions: for Vi/Vo: ratio of initial cleavage velocities of FS-2 with/without compound, enzyme and inhibitor concentrations equal (e.g., about 80 nM, 100 nM); for Ki: memapsin 2
Procedure: Ki is the inhibition equilibrium constant which indicates the ability of compounds to inhibit the β-secretase activity of memapsin 2 and memapsin 1. […] The K1 value is independent of the substrate, and converted from Ki apparent.
The Vi/Vo values depicted in Table 1 were determined at conditions under which the enzyme and inhibitor concentrations were equal (e.g., about 80 nM, 100 nM).
The relationship of Ki (independent of substrate concentration) to Kiapp is a function of substrate concentration in the assay and the Km for cleavage of the substrate by either memapsin 1 or memapsin 2 by the relationship:
The spontaneously activated memapsin 2 was employed in assays to assess the inhibition of memapsin 2 relative to memapsin 1 by compounds of the invention and in some crystallization studies.
An aliquot of the inhibitor of known concentration in DMSO was diluted into 1.8 ml 0.1 M NaOAc, pH 4.0. DMSO and added to a final concentration of 10% (v/v), and memapsin 2 (final concentration of 80 nM), followed by a 20 minute equilibration at 37° C. Compounds were evaluated for the ability to inhibit memapsin 1 and memapsin 2 at concentrations between about 10 nM and about 10 μm of inhibitor.

[1] = apparent Ki in presence of substrate FS-2, read-out: Ki app
[2] = independent of substrate, converted from Ki apparent, read-out: Ki

T1 sequence (P56817 41-454 limits assumed): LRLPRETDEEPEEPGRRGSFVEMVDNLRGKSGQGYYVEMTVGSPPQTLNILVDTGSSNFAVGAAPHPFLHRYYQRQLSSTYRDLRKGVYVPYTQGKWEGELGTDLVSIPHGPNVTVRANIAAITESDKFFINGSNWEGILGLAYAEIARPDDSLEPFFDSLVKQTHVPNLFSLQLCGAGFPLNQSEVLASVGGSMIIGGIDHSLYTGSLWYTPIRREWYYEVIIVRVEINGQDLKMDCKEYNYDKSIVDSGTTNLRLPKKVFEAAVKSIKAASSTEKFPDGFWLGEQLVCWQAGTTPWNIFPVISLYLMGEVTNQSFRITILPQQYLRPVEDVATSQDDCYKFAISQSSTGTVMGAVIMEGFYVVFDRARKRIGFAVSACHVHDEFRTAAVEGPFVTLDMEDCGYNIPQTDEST

Structure (SMILES) | Vi/Vo | Ki [1] [µM] | Ki [2] [µM]
CC(C)C[C@H](NC(=O)[C@H](C)C[C@H](O)[C@H](CC(C)C)NC(=O)[C@H](CS(C)(=O)=O)NC(=O)OCc1ccccn1)C(=O)NCc1ccccc1 [MMI-126] | 0.72 | – | –
CC(C)C[C@H](NC(=O)[C@H](CS(C)(=O)=O)NC(=O)OCc1ccncc1)[C@@H](O)C[C@@H](C)C(=O)N[C@H](C(=O)NCc1ccccc1)C(C)C [MMI-128] | 0.66 | – | –
CSCC[C@H](NC(=O)[C@@H](NC(=O)OC(C)(C)C)C(C)C)C(=O)N[C@@H](CC(C)C)[C@@H](O)C[C@@H](C)C(=O)N[C@@H](C(C)C)C1CCCCO1 (stereo partly drawn) [MMI-130] | – | – | 68.6
CSCC[C@H](NC(=O)[C@@H](NC(=O)OC(C)(C)C)C(C)C)C(=O)N[C@@H](CC(C)C)[C@@H](O)C[C@@H](C)C(=O)N[C@@H](C(C)C)C1CCCCO1 (stereo partly drawn) [MMI-131] | – | 92.9 | 58.1
CSCC[C@H](NC(=O)[C@H](CC(C)C)NC(=O)OC(C)(C)C)C(=O)N[C@@H](CC(C)C)[C@H](O)C[C@H](C)C(=O)N[C@H](C(=O)NCc1ccccc1)C(C)C [MMI-133] | 0.09 | 0.00052 | 0.00033
CC(C)C[C@H](NC(=O)[C@H](CCS(C)(=O)=O)NC(=O)OCc1ccoc1)[C@@H](O)C[C@@H](C)C(=O)N[C@H](C(=O)NCc1ccccc1)C(C)C [MMI-137] | 0.85 | – | –
CC(C)C[C@H](NC(=O)[C@H](CS(C)(=O)=O)NC(=O)OCc1cccnc1)[C@@H](O)C[C@@H](C)C(=O)N[C@H](C(=O)NCc1ccccc1)C(C)C [MMI-142] | 0.92 | – | –
CC(C)C[C@H](NC(=O)[C@H](C)C[C@H](O)[C@H](CC(C)C)NC(=O)[C@H](CS(C)(=O)=O)NC(=O)OCc1cccnc1)C(=O)NCc1ccccc1 [MMI-143] | 1 | – | –
C=C(C[C@H](O)[C@H](CC(C)C)NC(=O)[C@H](CCSC)NC(=O)[C@@H](NC(=O)OC(C)(C)C)C(C)C)C(=O)N[C@H](C(=O)NCc1ccccc1)C(C)C [MMI-145] | 0.84 | – | –
CSCC[C@H](NC(=O)[C@@H](NC(=O)OC(C)(C)C)C(C)C)C(=O)N[C@@H](CC(C)C)[C@@H](O)C[C@@H](C)C(=O)N[C@@H](C(C)C)C1CC(Cc2ccccc2)CCO1 (stereo partly drawn) [MMI-147] | 1.1 | – | –
C=CCNC(=O)C[C@H](NC(=O)[C@@H](NC(=O)OCC=C)C(C)C)C(=O)N[C@@H](CC(C)C)[C@@H](O)C[C@@H](C)C(=O)N[C@H](C(=O)NCc1ccccc1)C(C)C [MMI-148] | 0.46 | 0.0259 | 0.0162
CC(C)C[C@H](NC(=O)[C@@H]1CC(=O)NC/C=C\COC(=O)N[C@@H](C(C)C)C(=O)N1)[C@@H](O)C[C@@H](C)C(=O)N[C@H](C(=O)NCc1ccccc1)C(C)C [MMI-149] | 0.66 | – | –
CC(C)C[C@H](NC(=O)[C@@H]1CC(=O)NCCCCOC(=O)N[C@@H](C(C)C)C(=O)N1)[C@@H](O)C[C@@H](C)C(=O)N[C@H](C(=O)NCc1ccccc1)C(C)C [MMI-150] | 0.8 | – | –
CC(C)C[C@H](NC(=O)[C@@H]1CC(=O)NC/C=C\CCOC(=O)N[C@@H](C(C)C)C(=O)N1)[C@@H](O)C[C@@H](C)C(=O)N[C@H](C(=O)NCc1ccccc1)C(C)C [MMI-152] | 0.47 | 0.0206 | 0.0129
CSCC[C@H](NC(=O)[C@@H](NC(=O)OC(C)(C)C)C(C)C)C(=O)N[C@@H](CC(C)C)[C@@H](O)C[C@@H](C)C(=O)N[C@@H](C(C)C)C1CCCO1 (stereo partly drawn) [MMI-154] | 0.1 | – | –
CSCC[C@H](NC(=O)[C@@H](NC(=O)OC(C)(C)C)C(C)C)C(=O)N[C@@H](CO)[C@@H](O)C[C@@H](C)C(=O)N[C@H](C(=O)NCc1ccccc1)C(C)C [MMI-155] | 0.08 | 0.00206 | 0.00128
CSCC[C@H](NC(=O)[C@H](CC(C)C)NC(=O)OC(C)(C)C)C(=O)N[C@@H](CC(C)C)[C@@H](O)C[C@@H](C)C(=O)N[C@@H](CC(C)C)C(=O)NC(C)C [MMI-158] | 0.08 | 0.000524 | 0.00033
CSCC[C@H](NC(=O)[C@H](CC(C)C)NC(=O)OC(C)(C)C)C(=O)N[C@@H](CC(C)C)[C@@H](O)C[C@@H](C)C(=O)N[C@H](C(=O)NCc1ccco1)C(C)C [MMI-161] | 0.06 | 0.00068 | 0.00043
CSCC[C@H](NC(=O)[C@@H](NC(=O)OC(C)(C)C)C(C)C)C(=O)N[C@@H](CC(C)C)[C@@H](O)C[C@@H](C)NC(=O)[C@H](NC(=O)OCc1ccccc1)C(C)C [MMI-162] | 0.98 | – | –

Second part, the compound after the results:

Vi/Vo | Ki [1] [µM] | Ki [2] [µM] | Structure (SMILES)
– | 6.84 | 4.28 | CSCC[C@H](NC(=O)OCc1ccc(CN(C)C)o1)C(=O)N[C@@H](CC(C)C)[C@@H](O)C[C@@H](C)C(=O)N[C@H](C(=O)NCc1ccccc1)C(C)C [MMI-127]
1.01 | – | – | CC(C)C[C@H](NC(=O)[C@H](CCS(C)(=O)=O)NC(=O)OCc1ccc(CN(C)C)o1)[C@@H](O)C[C@@H](C)C(=O)N[C@H](C(=O)NCc1ccccc1)C(C)C [MMI-129]
0.12 | 0.0103 | 0.00646 | CC(C)CNC(=O)[C@@H](NC(=O)[C@H](C)C[C@H](O)[C@H](CC(C)C)NC(=O)[C@H](CCS(C)(=O)=O)NC(=O)[C@H](CC(C)C)NC(=O)OC(C)(C)C)C(C)C [MMI-135]
0.87 | – | – | CC(C)C[C@H](NC(=O)[C@H](CCS(C)(=O)=O)NC(=O)OCc1ccco1)[C@@H](O)C[C@@H](C)C(=O)N[C@H](C(=O)NCc1ccccc1)C(C)C [MMI-136]
– | 38.7 | 24.2 | CSCC[C@H](NC(=O)[C@@H](NC(=O)OC(C)(C)C)C(C)C)C(=O)N[C@@H](CC(C)C)[C@@H](O)C[C@@H](C)C(=O)N[C@@H](C(C)C)C1CC(Cc2ccccc2)CC(=O)O1 (stereo partly drawn) [MMI-140]
– | 30 | 18.8 | CSCC[C@H](NC(=O)[C@@H](NC(=O)OC(C)(C)C)C(C)C)C(=O)N[C@@H](CC(C)C)[C@@H](O)C[C@@H](C)C(=O)N[C@@H](C(C)C)C1CC(Cc2ccccc2)CC(=O)O1 (stereo partly drawn) [MMI-141]
1.03 | – | – | CC(C)C[C@H](NC(=O)[C@H](CS(C)(=O)=O)NC(=O)OCc1ccncc1)[C@@H](O)C[C@@H](C)C(=O)N[C@H](C(=O)NCc1ccccc1)C(C)C [MMI-144]
1.07 | – | – | CSCC[C@H](NC(=O)[C@@H](NC(=O)OC(C)(C)C)C(C)C)C(=O)N[C@@H](CC(C)C)[C@@H](O)C[C@@H](C)C(=O)N[C@@H](C(C)C)C1CC(Cc2ccccc2)CCO1 (stereo partly drawn) [MMI-146-A]
1.04 | – | – | CSCC[C@H](NC(=O)[C@@H](NC(=O)OC(C)(C)C)C(C)C)C(=O)N[C@@H](CC(C)C)[C@@H](O)C[C@@H](C)C(=O)N[C@@H](C(C)C)C1CC(Cc2ccccc2)CCO1 (stereo partly drawn) [MMI-146-S]
0.56 | – | – | C=CCCOC(=O)N[C@H](C(=O)N[C@@H](CC(=O)NCC=C)C(=O)N[C@@H](CC(C)C)[C@@H](O)C[C@@H](C)C(=O)N[C@H](C(=O)NCc1ccccc1)C(C)C)C(C)C [MMI-151]
0.68 | – | – | CC(C)C[C@H](NC(=O)[C@@H]1CC(=O)NCCCCCOC(=O)N[C@@H](C(C)C)C(=O)N1)[C@@H](O)C[C@@H](C)C(=O)N[C@H](C(=O)NCc1ccccc1)C(C)C [MMI-153]
0.07 | 0.0008 | 0.0005 | CCCCNC(=O)[C@@H](NC(=O)[C@H](C)C[C@H](O)[C@H](CC(C)C)NC(=O)[C@H](CCSC)NC(=O)[C@H](CC(C)C)NC(=O)OC(C)(C)C)C(C)C [MMI-159]
0.19 | 0.00415 | 0.00259 | CCCCNC(=O)[C@H](CC(C)C)NC(=O)[C@H](C)C[C@H](O)[C@H](CC(C)C)NC(=O)[C@H](CCSC)NC(=O)[C@H](CC(C)C)NC(=O)OC(C)(C)C [MMI-160]
